Assay [1] addresses T1, Acetylcholinesterase (Homo sapiens, UniProt P22303). The assay is described as follows: Inhibition of human erythrocytes acetylcholinesterase after 15 mins at 250 uM relative to control.
Assay [2] concerns the target T1, Acetylcholinesterase. The assay is described as follows: Inhibition of human erythrocytes acetylcholinesterase after 15 mins.

SMILES strings stand for the structures.

T1 sequence (P22303 whole entry): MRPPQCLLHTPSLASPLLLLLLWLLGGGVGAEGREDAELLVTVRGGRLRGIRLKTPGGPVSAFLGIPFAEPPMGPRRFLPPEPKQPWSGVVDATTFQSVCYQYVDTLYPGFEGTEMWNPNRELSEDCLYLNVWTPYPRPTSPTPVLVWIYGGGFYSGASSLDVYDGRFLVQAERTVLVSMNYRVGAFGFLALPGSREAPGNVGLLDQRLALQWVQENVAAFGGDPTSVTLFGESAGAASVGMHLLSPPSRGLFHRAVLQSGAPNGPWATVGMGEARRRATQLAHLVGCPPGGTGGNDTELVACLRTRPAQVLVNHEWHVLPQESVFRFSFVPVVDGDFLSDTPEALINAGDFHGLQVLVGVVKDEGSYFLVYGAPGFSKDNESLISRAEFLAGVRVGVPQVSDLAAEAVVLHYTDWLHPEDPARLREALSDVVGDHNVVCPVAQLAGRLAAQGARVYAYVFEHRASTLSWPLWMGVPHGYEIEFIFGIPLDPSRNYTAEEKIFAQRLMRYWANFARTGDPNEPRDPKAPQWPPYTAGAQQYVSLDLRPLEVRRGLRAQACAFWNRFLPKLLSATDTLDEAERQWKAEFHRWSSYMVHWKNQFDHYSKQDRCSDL

In general, inhibition refers to the relative decrease from the control value, in per cent. The low end stands for little suppression, the high end for strong suppression. At Acetylcholinesterase [1], `CC(C)(O)CC(=O)CC(C)(O)c1ccc(C(=O)O)cc1` (single isomer, unassigned; (+)) displayed an inhibition of 37.6%.
Still for that read-out and setting: the figure for `Cc1coc(C[C@](C)(O)c2ccc(C(=O)O)cc2)c1` is 33.6%.
`C/C(=C\C(=O)C[C@H](C)c1ccc(C(=O)O)cc1)CO` gave an inhibition on Acetylcholinesterase [1] of 31%.
A word on the IC50: it is the midpoint of a concentration-inhibition curve. `CC(C)=CC(=O)C[C@H](C)c1ccc(C)cc1` came in with an IC50 on Acetylcholinesterase [2] of 191 µM.
With `C/C(=C\C(=O)C[C@](C)(O)c1ccc(C(=O)O)cc1)CO`, the inhibition against Acetylcholinesterase [1] was found to be 34.3%.
For the molecule `Cc1ccc([C@@H](C)CC(=O)CC(C)C)cc1`, at Acetylcholinesterase [2], it took 81.5 µM to reach half-maximal inhibition (IC50).
As for `CC(C)=CC(=O)C[C@](C)(O)c1ccc(C(=O)O)cc1`, at Acetylcholinesterase [1], the inhibition is 41.9%.

(Values after ChEMBL document CHEMBL1667723, “Biotransformation of turmerones by Aspergillus niger” (J Nat Prod, 2011).)
